pKi: −log10 of the molar value.
Legend:
[1] = Selectivity ratio of Ki for sigma 2 receptor in guinea pig brain to Ki for sigma 1 receptor in rat liver homogenate; type: tissue-based
[2] = Displacement of [3H]-DTG from sigma 2 receptor in guinea pig brain after 120 mins by liquid scintillation counting; set-up: species or system Cavia porcellus
[3] = target: Sigma non-opioid intracellular receptor 1 (Rattus norvegicus, UniProt Q9R0C9); experiment: Displacement of [3H](+)-pentazocine from sigma 1 receptor in rat liver homogenate after 120 mins by liquid scintillation counting; type: tissue-based
Sequence of Sigma non-opioid intracellular receptor 1 (Q9R0C9 whole entry): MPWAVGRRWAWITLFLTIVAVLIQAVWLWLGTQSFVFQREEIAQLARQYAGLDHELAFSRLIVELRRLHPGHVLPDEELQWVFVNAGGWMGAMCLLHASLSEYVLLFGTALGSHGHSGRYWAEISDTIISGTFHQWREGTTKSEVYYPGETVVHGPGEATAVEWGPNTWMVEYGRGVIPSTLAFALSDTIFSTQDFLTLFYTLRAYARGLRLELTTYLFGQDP

Ratio Ki [1]	pKi [2]	pKi [3]	SMILES
> 1	< 6.30	6.52	CCN(CC1CCN(Cc2ccccc2)CC1)C(=O)c1ccc(-c2ccccc2)cc1
> 17	< 6.00	7.23	CCN(CC1CCN(Cc2ccccc2)CC1)C(=O)c1ccc(Cl)cc1
> 3	< 6.30	6.80	CCN(CC1CCN(Cc2ccccc2)CC1)C(=O)c1ccc(C)cc1
1.36	6.57	6.70	CCN(CC1CCN(Cc2ccccc2)CC1)C(=O)c1ccc2ccccc2c1
–	–	7.18	CCN(CC1CCN(Cc2ccccc2)CC1)C(=O)c1ccccc1
–	–	6.81	CCN(CC1CCN(Cc2ccc(Cl)cc2)CC1)C(=O)c1ccccc1
> 6	< 6.00	6.79	CCN(CC1CCN(Cc2ccccc2)CC1)C(=O)c1cccc2ccccc12

Continued, molecule first:

SMILES	Ratio Ki [1]	pKi [2]	pKi [3]
CCN(CC1CCN(Cc2ccc(Cl)cc2)CC1)C(=O)c1cccc2ccccc12	> 4	< 6.00	6.67
CCN(CC1CCN(Cc2ccc(Cl)cc2)CC1)C(=O)c1ccc(OC)cc1	1.3	6.55	6.66
CCN(CC1CCN(Cc2ccccc2)CC1)C(=O)c1ccco1	> 140	< 5.52	7.67
CCN(CC1CCN(Cc2ccc(Cl)cc2)CC1)C(=O)c1ccco1	> 40	< 6.30	7.87
CCN(CC1CCN(Cc2ccc(Cl)cc2)CC1)C(=O)c1ccc(-c2ccccc2)cc1	–	–	6.43
CCN(CC1CCN(Cc2ccc(Cl)cc2)CC1)C(=O)c1ccc(C)cc1	> 3	< 6.30	6.85
CCN(CC1CCN(Cc2ccccc2)CC1)C(=O)c1ccc(OC)cc1	–	–	6.72
CCN(CC1CCN(Cc2ccc(Cl)cc2)CC1)C(=O)c1ccc2ccccc2c1	–	–	6.65
CCN(CC1CCN(Cc2ccc(Cl)cc2)CC1)C(=O)c1ccc(Cl)cc1	> 11	< 6.00	7.04
